Experimental data as given in article PMC5399447, “Neuroprotective pentapeptide CN-105 is associated with reduced sterile inflammation and improved functional outcomes in a traumatic brain injury murine model” (Scientific Reports, 2017).

System: 84 genes related to inflammatory and autoimmune processes
Test: Mouse Inflammatory Response and Autoimmunity PCR Array, whole brain
Assay type: in vivo
Method: Frozen, pulverized whole brain tissue was processed for RNA extraction from a separate cohort of treated and untreated injured animals on days 1 post-injury(CN-105, n = 4; vehicle, n = 3; Control(sham-operated), n = 3). Total RNA was extracted from frozen, pulverized whole brain tissue using RNeasy Lipid Tissue Mini Kit(Qiagen, Valencia, CA). RNA quantity and quality was assessed with the NanoDrop ND-1000 spectrophotometer(NanoDrop Technologies, Inc., Wilmington, DE) and by agarose gel electrophoresis. Only samples with a 260/280 ratio between 1.9–2.1, and a 260/230 ratio greater than 2.0, were further processed. First strand complementary DNA(cDNA) was generated from 2 μg total RNA using the RT[2] First strand kit(SABiosciences, Frederick, MD.)
Gene expression was measured using the Mouse Inflammatory Response and Autoimmunity PCR Array(SABiosciences, Frederick, MD), which profiles the expression of 84 genes related to inflammatory and autoimmune processes. RT-PCR was performed according to manufacturer’s instructions Quality of the cDNA and PCR efficiency was verified by housekeeping genes and RT-PCR controls included in the PCR Array.
Raw RT-PCR data were analyzed using the Web-Based PCR Array Data Analysis software(SABiosciences). ΔCt values and ΔΔCt - based fold-change were calculated from raw threshold cycle data, using beta-actin and glyceraldehyde 3-phosphate dehydrogenase(GAPDH) as internal standards for normalization. Fold changes were then normalized against sham-operated controls.

[1] = TBI CN-105 vs TBI vehicle, brain 24 h post TBI
[2] = TBI CN-105 vs sham vehicle, brain 24 h

Substance: Ac-VSRRR-amide [CN-105]
- Ccl24 Fold Change [1]: −14.8
- Ccl25 Fold Change [1]: −1.2
- Ccr1 Fold Change [1]: 2.3
- Ccr2 Fold Change [1]: −48.3
- Ccr3 Fold Change [1]: 5.4
- Ccr4 Fold Change [1]: 1.2
- Ccr7 Fold Change [1]: 1.2
- Cd40 Fold Change [1]: −7.8
- Cd40lg Fold Change [1]: −1.2
- Cebpb Fold Change [1]: −1.5
- Crp Fold Change [1]: 1.2
- Csf1 Fold Change [1]: −2.0
- Cxcl1 Fold Change [1]: −8.3
- Cxcl2 Fold Change [1]: 4.8
- Cxcl3 Fold Change [1]: 2.4
- Cxcl5 Fold Change [1]: 6257
- Cxcl9 Fold Change [1]: −70.3
- Cxcl10 Fold Change [1]: −47.9
- Cxcl11 Fold Change [1]: 2.6
- Cxcr4 Fold Change [1]: −7.3
- Fasl Fold Change [1]: −2.0
- Flt3l Fold Change [1]: −1.4
- Fos Fold Change [1]: −1.2
- Hdac4 Fold Change [1]: −1.1
- Ifng Fold Change [1]: −12.9
- Il1a Fold Change [1]: −10.1
- Il1b Fold Change [1]: −1.6
- Il1f10 Fold Change [1]: 3.8
- Il1r1 Fold Change [1]: 3.5
- Il1rap Fold Change [1]: −2.2
- Il1rn Fold Change [1]: −1.6
- Il6 Fold Change [1]: −29.8
- Il6ra Fold Change [1]: −2.9
- Il7 Fold Change [1]: 515
- Il8ra Fold Change [1]: 1.2
- Il8rb Fold Change [1]: 1.1
- Il9 Fold Change [1]: 1.2
- Il10 Fold Change [1]: −9.3
- Il10rb Fold Change [1]: 2.6
- Il18 Fold Change [1]: 7.2
- Il18rap Fold Change [1]: −3.6
- Il22 Fold Change [1]: −1.7
- Il22ra2 Fold Change [1]: 10895
- Il23a Fold Change [1]: 18.5
- Il23r Fold Change [1]: 5.8
- Itgb2 Fold Change [1]: −1.5
- Kng1 Fold Change [1]: −1.1
- Lta Fold Change [1]: −1.2
- Ltb Fold Change [1]: 3.6
- Ly96 Fold Change [1]: 61.2
- Myd88 Fold Change [1]: −273
- Nfatc3 Fold Change [1]: 10044
- Nfkb1 Fold Change [1]: −16.6
- Nr3c1 Fold Change [1]: 13.7
- Ripk2 Fold Change [1]: −1.1
- Tirap Fold Change [1]: −1.5
- Tlr1 Fold Change [1]: −1.4
- Tlr2 Fold Change [1]: 1.0
- Tlr3 Fold Change [1]: 1.3
- Tlr4 Fold Change [1]: −9.0
- Tlr5 Fold Change [1]: 2.5
- Tlr6 Fold Change [1]: −170
- Tlr7 Fold Change [1]: 19.0
- Tnf Fold Change [1]: 6.9
- Tnfsf14 Fold Change [1]: −2.8
- Tollip Fold Change [1]: −2.9
- Bcl6 fold change TBI-CN-105/S-v [2]: 11.2
- C3ar1 fold change TBI-CN-105/S-v [2]: 34.9
- C3 fold change TBI-CN-105/S-v [2]: 4.6
- C4b fold change TBI-CN-105/S-v [2]: 163.3
- Ccl2 fold change TBI-CN-105/S-v [2]: 42.3
- Ccl3 fold change TBI-CN-105/S-v [2]: 17.7
- Ccl4 fold change TBI-CN-105/S-v [2]: 32.3
- Ccl5 fold change TBI-CN-105/S-v [2]: 3.8
- Ccl7 fold change TBI-CN-105/S-v [2]: 2.9
- Ccl8 fold change TBI-CN-105/S-v [2]: 5.6
- Ccl11 fold change TBI-CN-105/S-v [2]: 2253.1
- Ccl12 fold change TBI-CN-105/S-v [2]: 3.7
- Ccl17 fold change TBI-CN-105/S-v [2]: −2.6
- Ccl19 fold change TBI-CN-105/S-v [2]: −5.8
- Ccl20 fold change TBI-CN-105/S-v [2]: 3086.8
- Ccl22 fold change TBI-CN-105/S-v [2]: 176.2
- Ccl24 fold change TBI-CN-105/S-v [2]: 159.1
- Ccl25 fold change TBI-CN-105/S-v [2]: 16.9
- Ccr1 fold change TBI-CN-105/S-v [2]: −2.5
- Ccr2 fold change TBI-CN-105/S-v [2]: 5.6
- Ccr3 fold change TBI-CN-105/S-v [2]: 66.6
- Ccr4 fold change TBI-CN-105/S-v [2]: 7945.9
- Ccr7 fold change TBI-CN-105/S-v [2]: 283.2
- Cd40 fold change TBI-CN-105/S-v [2]: 38.8
- Cebpb fold change TBI-CN-105/S-v [2]: 3.5
- Csf1 fold change TBI-CN-105/S-v [2]: 1.1
- Cxcl1 fold change TBI-CN-105/S-v [2]: 29.4
- Cxcl2 fold change TBI-CN-105/S-v [2]: 25.5
- Cxcl3 fold change TBI-CN-105/S-v [2]: 54032.0
- Cxcl5 fold change TBI-CN-105/S-v [2]: 957.4
- Cxcl9 fold change TBI-CN-105/S-v [2]: 32.2
- Cxcl10 fold change TBI-CN-105/S-v [2]: −1.7
- Cxcl11 fold change TBI-CN-105/S-v [2]: 372.3
- Cxcr4 fold change TBI-CN-105/S-v [2]: 21.0
- Fasl fold change TBI-CN-105/S-v [2]: 3.2
- Flt3l fold change TBI-CN-105/S-v [2]: −2.8
